Data on eight compounds can be found in patent publication US20240270762A1, “PENICILLIN-BINDING PROTEIN INHIBITORS” (priority 2021, published 2024).

SMILES strings stand for the structures. Converted amounts (≈) assume the structure as drawn.

Assay [1] relates to A. baumannii CDC-0083. The assay can be described thus: microbe, parasite or virus in culture. The assay is classed as cell-based. The following applies: Acinetobacter baumannii, CDC0083, read-out: MIC, A. baumannii CDC-0083.
The target in assay [2] is T1, PBP3 from Escherichia coli (K-12) (Escherichia coli, UniProt P0AD68).
T1 construct: made in house
The assay can be described thus: Bocillin-FL fluorescence polarization competition binding, E. coli PBP3. The method, boiled down:
(§1)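 Purified PBPs pre-incubated with inhibitor (E. coli PBP3 1.5 μM, 30 min; P. aeruginosa PBP3 0.75 μM, A. baumannii PBP1a 1 μM and PBP3 0.2 μM, 15 min), then Bocillin-FL 0.1 μM (0.05 μM for PBP1a) added; FP read up to 60 min. EC50 = concentration halving bound Bocillin-FL.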

Assay [3] deals with A. baumannii CDC-0045. Briefly: microbe, parasite or virus in culture. The following applies: Acinetobacter baumannii, CDC0045, read-out: MIC, A. baumannii CDC-0045. Type of assay: cell-based.
Assay [4] concerns P. aeruginosa CDC-0090. Briefly: microbe, parasite or virus in culture. The assay is classed as cell-based. The following applies: Pseudomonas aeruginosa, CDC0090, read-out: Minimum inhibitory concentration, P. aeruginosa CDC-0090.
Assay [5] concerns B. thailandensis ATCC 700388. The assay can be described thus: microbe, parasite or virus in culture. The assay is classed as cell-based. The following applies: Burkholderia thailandensis, ATCC700388, read-out: Minimum inhibitory concentration (MIC), B. thailandensis ATCC 700388.
Assay [6] has as its system P. aeruginosa (ΔmexAB-oprM). The assay can be described thus: Broth microdilution MIC in iron-depleted CAMHB (IDM). Type of assay: cell-based. The following applies: Pseudomonas aeruginosa; iron-depleted CAMHB (IDM); […]; read-out: Minimum inhibitory concentration, P. aeruginosa ΔmexAB-oprM. On the technique in general: In broth dilution the organism is exposed to a series of concentrations in liquid medium.

The subject of assay [7] is A. baumannii ATCC 17978. Briefly: microbe, parasite or virus in culture. Type of assay: cell-based. The conditions noted are these: Acinetobacter baumannii, ATCC17978, read-out: MIC, A. baumannii ATCC 17978.
Assay [8] concerns the target T2, PBP3 from Pseudomonas aeruginosa (PAO1) (Pseudomonas aeruginosa, UniProt G3XD46).
T2 construct: made in house
The assay can be described thus: Bocillin-FL fluorescence polarization competition binding, P. aeruginosa PBP3. The conditions noted are these: Binding affinity to P. aeruginosa PBP3; fluorescence polarization competition binding assay using Bocillin-FL; read-out: P. aeruginosa PBP3 Potency. The procedure, abridged:
as §1
A general note: In fluorescence polarisation assays a small probe gives low polarisation when free and higher when bound to something large.

For assay [9], the system named is P. aeruginosa CDC-0054. Briefly: microbe, parasite or virus in culture. Type of assay: cell-based. The conditions noted are these: Pseudomonas aeruginosa, CDC0054, read-out: Minimum inhibitory concentration, P. aeruginosa CDC-0054.
In assay [10] the target is T3, PBP3 from Acinetobacter baumannii (ATCC 19606) (Acinetobacter baumannii, UniProt A0ABX6CK25).
T3 sequence (A0ABX6CK25 64-610): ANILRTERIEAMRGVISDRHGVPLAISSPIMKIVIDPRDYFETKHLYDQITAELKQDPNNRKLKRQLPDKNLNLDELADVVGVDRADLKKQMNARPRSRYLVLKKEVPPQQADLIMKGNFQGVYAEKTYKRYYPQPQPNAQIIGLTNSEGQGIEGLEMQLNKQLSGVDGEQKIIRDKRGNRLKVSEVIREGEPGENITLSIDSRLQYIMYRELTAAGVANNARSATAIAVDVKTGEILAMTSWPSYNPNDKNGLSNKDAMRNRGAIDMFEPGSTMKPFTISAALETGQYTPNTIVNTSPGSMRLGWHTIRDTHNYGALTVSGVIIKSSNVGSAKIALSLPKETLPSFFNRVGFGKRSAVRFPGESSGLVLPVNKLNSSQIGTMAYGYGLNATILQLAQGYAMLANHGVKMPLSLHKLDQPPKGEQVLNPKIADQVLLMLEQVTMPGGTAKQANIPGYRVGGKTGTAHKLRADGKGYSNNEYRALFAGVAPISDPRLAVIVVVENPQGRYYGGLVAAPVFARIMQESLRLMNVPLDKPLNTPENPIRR
Briefly: Bocillin-FL fluorescence polarization competition binding, A. baumannii PBP3. The conditions noted are these: fluorescence polarization competition binding assay using Bocillin-FL; read-out: A. baumannii PBP3 Potency. The procedure, abridged:
as §1

For assay [11], the system named is A. baumannii 1258916. Briefly: microbe, parasite or virus in culture. The assay is classed as cell-based, Acinetobacter baumannii. The conditions noted are these: Acinetobacter baumannii, 1258916, read-out: MIC, A. baumannii 1258916.

T1 sequence (P0AD68 1-577): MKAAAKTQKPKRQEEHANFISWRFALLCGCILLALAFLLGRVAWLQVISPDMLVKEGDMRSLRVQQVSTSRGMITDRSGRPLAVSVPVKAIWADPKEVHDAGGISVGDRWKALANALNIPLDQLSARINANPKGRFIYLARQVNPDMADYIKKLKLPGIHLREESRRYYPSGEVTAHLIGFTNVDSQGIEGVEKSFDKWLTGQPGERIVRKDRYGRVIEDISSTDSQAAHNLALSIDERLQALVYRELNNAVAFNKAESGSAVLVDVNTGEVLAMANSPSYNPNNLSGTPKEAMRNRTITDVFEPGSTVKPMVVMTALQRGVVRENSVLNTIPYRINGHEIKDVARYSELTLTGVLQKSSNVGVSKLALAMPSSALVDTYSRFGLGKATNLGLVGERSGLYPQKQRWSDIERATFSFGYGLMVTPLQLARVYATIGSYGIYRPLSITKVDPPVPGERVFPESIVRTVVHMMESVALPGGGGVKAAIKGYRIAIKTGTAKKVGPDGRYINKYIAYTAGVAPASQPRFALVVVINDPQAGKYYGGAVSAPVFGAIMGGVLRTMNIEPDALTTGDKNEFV
T2 sequence (G3XD46 whole entry): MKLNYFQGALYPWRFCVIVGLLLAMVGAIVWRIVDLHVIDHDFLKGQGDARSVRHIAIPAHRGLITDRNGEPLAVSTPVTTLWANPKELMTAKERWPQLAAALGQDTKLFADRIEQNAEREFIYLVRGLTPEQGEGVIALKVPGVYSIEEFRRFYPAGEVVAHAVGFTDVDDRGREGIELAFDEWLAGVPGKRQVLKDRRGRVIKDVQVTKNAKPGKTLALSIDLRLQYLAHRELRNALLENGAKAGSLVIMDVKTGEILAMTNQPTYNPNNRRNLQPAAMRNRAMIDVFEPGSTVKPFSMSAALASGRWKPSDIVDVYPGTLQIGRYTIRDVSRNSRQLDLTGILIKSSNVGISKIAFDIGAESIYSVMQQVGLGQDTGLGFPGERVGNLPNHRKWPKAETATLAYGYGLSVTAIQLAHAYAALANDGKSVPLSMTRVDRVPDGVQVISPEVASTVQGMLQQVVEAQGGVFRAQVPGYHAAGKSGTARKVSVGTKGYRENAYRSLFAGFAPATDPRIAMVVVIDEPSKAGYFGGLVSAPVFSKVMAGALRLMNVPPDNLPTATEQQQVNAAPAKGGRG

As to `O=C(NCCCN1CCN(C(=O)N[C@@H](C(=O)N[C@H]2Cc3ccc(F)c(C(=O)O)c3OB2O)c2cc(F)c(O)c(O)c2Cl)C(=O)C1=O)c1ccncc1` [Example 294, (R)-3-((R)-2-(2-chloro-5-fluoro-3,4-dihydroxyphenyl)-2-(4-(3-(isonicotinamido)propyl)-2,3-dioxopiperazine-1-carboxamido)acetamido)-7-fluoro-2-hydroxy-3,4-dihydro-2H-benzo[e][1,2]oxaborinine-8-carboxylic acid], the MIC in assay [1], in assay [3], in assay [4], in assay [5], in assay [6] and in assay [7] was under 1 µg/mL each time. Moreover, the MIC in [9] and in assay [11] was under 1 µg/mL each time. This compound yielded an EC50 in [2] of under 10 µM. Moreover, the IC50 in assay [8] and in [10] was under 10 µM throughout.
In the case of `O=C(NCCCN1CCN(C(=O)NC(C(=O)N[C@H]2Cc3ccc(F)c(C(=O)O)c3OB2O)c2cc(F)c(O)c(O)c2Cl)C(=O)C1=O)c1ccncc1Cl` (stereo partly drawn) [Example 295, (3R)-3-(2-(2-chloro-5-fluoro-3,4-dihydroxyphenyl)-2-(4-(3-(3-chloroisonicotinamido)propyl)-2,3-dioxopiperazine-1-carboxamido)acetamido)-7-fluoro-2-hydroxy-3,4-dihydro-2H-benzo[e][1,2]oxaborinine-8-carboxylic acid], the MIC in assay [1] was under 1 µg/mL; in assay [3] it was under 1 µg/mL; in [4] it was under 1 µg/mL; in assay [5], 2 to 4 µg/mL (≈ 2.57 to 5.13 µM); in assay [6], under 1 µg/mL; in [7] it was under 1 µg/mL. Also, the MIC was 2 to 4 µg/mL (≈ 2.57 to 5.13 µM) in assay [9] and under 1 µg/mL in assay [11]. This compound also had a concentration for a half-maximal effect (EC50) in assay [2] of under 10 µM. Further, the IC50 in assay [8] and in assay [10] was under 10 µM each time.
`O=C(NCCCN1CCN(C(=O)N[C@@H](C(=O)N[C@H]2Cc3ccc(F)c(C(=O)O)c3OB2O)c2cc(F)c(O)c(O)c2Cl)C(=O)C1=O)c1ccncc1O` [Example 296, (R)-3-((R)-2-(2-chloro-5-fluoro-3,4-dihydroxyphenyl)-2-(4-(3-(3-hydroxyisonicotinamido)propyl)-2,3-dioxopiperazine-1-carboxamido)acetamido)-7-fluoro-2-hydroxy-3,4-dihydro-2H-benzo[e][1,2]oxaborinine-8-carboxylic acid]: the MIC in assay [1] was under 1 µg/mL; in assay [3] it was under 1 µg/mL; in [4], under 1 µg/mL; in assay [5], 2 to 4 µg/mL (≈ 2.63 to 5.26 µM); in assay [6] it was under 1 µg/mL; in [7] it was under 1 µg/mL. The MIC in assay [9] and in [11] was under 1 µg/mL each time. Further, in assay [2], the half-maximal effective concentration (EC50) is under 10 µM. For the same compound, the IC50 in assay [8] and in assay [10] was under 10 µM in each case.
Turning to `Cc1cnccc1C(=O)NCCCN1CCN(C(=O)NC(C(=O)N[C@H]2Cc3ccc(F)c(C(=O)O)c3OB2O)c2cc(F)c(O)c(O)c2Cl)C(=O)C1=O` (stereo partly drawn) [Example 297, (3R)-3-(2-(2-chloro-5-fluoro-3,4-dihydroxyphenyl)-2-(4-(3-(3-methylisonicotinamido)propyl)-2,3-dioxopiperazine-1-carboxamido)acetamido)-7-fluoro-2-hydroxy-3,4-dihydro-2H-benzo[e][1,2]oxaborinine-8-carboxylic acid], the MIC was under 1 µg/mL in assay [1]; under 1 µg/mL in [3]; under 1 µg/mL in assay [4]; 2 to 4 µg/mL (≈ 2.64 to 5.27 µM) in assay [5]; under 1 µg/mL in [6]; under 1 µg/mL in assay [7]. In addition, the MIC in [9] was 2 to 4 µg/mL (≈ 2.64 to 5.27 µM); in assay [11], under 1 µg/mL. The EC50 in assay [2] is under 10 µM. Also, the IC50 in [8] and in assay [10] was under 10 µM in each case.
`Cc1cc(C(=O)NCCCN2CCN(C(=O)N[C@@H](C(=O)N[C@H]3Cc4ccc(F)c(C(=O)O)c4OB3O)c3cc(F)c(O)c(O)c3Cl)C(=O)C2=O)ccn1` [Example 298, (R)-3-((R)-2-(2-chloro-5-fluoro-3,4-dihydroxyphenyl)-2-(4-(3-(2-methylisonicotinamido)propyl)-2,3-dioxopiperazine-1-carboxamido)acetamido)-7-fluoro-2-hydroxy-3,4-dihydro-2H-benzo[e][1,2]oxaborinine-8-carboxylic acid]: the MIC in assay [1], in assay [3], in assay [4], in assay [5], in assay [6] and in assay [7] was under 1 µg/mL in each case. Besides, the MIC in assay [9] and in assay [11] was under 1 µg/mL in each case. In assay [2], this compound had a concentration for a half-maximal effect (EC50) of under 10 µM. The IC50 in [8] and in assay [10] was under 10 µM in each case.
For `O=C(NCCCN1CCN(C(=O)N[C@H](C(=O)N[C@H]2Cc3ccc(F)c(C(=O)O)c3OB2O)c2cc(F)c(O)c(O)c2Cl)C(=O)C1=O)c1ccnc(F)c1F` [Example 299, (R)-3-((S)-2-(2-chloro-5-fluoro-3,4-dihydroxyphenyl)-2-(4-(3-(2,3-difluoroisonicotinamido)propyl)-2,3-dioxopiperazine-1-carboxamido)acetamido)-7-fluoro-2-hydroxy-3,4-dihydro-2H-benzo[e][1,2]oxaborinine-8-carboxylic acid], the MIC is 2 to 4 µg/mL (≈ 2.56 to 5.12 µM) in [1]; over 128 µg/mL in [3]; 2 to 4 µg/mL (≈ 2.56 to 5.12 µM) in [4]; over 128 µg/mL in assay [5]; 2 to 4 µg/mL (≈ 2.56 to 5.12 µM) in assay [6]; under 1 µg/mL in [7]. For the same compound, the results for the MIC in [9] and in assay [11] were 2 to 4 µg/mL (≈ 2.56 to 5.12 µM) and 8 to 16 µg/mL (≈ 10.2 to 20.5 µM), respectively. This compound also registered a half-maximal effective concentration (EC50) in assay [2] of over 250 µM. The IC50 in [8] and in assay [10] was 10 to 50 µM each time.
As to `O=C(NCCCN1CCN(C(=O)N[C@@H](C(=O)N[C@H]2Cc3ccc(F)c(C(=O)O)c3OB2O)c2cc(F)c(O)c(O)c2Cl)C(=O)C1=O)c1ccnc(F)c1F` [Example 300, (R)-3-((R)-2-(2-chloro-5-fluoro-3,4-dihydroxyphenyl)-2-(4-(3-(2,3-difluoroisonicotinamido)propyl)-2,3-dioxopiperazine-1-carboxamido)acetamido)-7-fluoro-2-hydroxy-3,4-dihydro-2H-benzo[e][1,2]oxaborinine-8-carboxylic acid], the MIC in assay [1] was under 1 µg/mL; in assay [3] it was under 1 µg/mL; in assay [4] it was under 1 µg/mL; in assay [5] it was 2 to 4 µg/mL (≈ 2.56 to 5.12 µM); in assay [6], under 1 µg/mL; in assay [7], under 1 µg/mL. The MIC in assay [9] and in assay [11] was under 1 µg/mL in each case. In [2], this compound registered an EC50 of under 10 µM. Besides, the IC50 in [8] and in assay [10] was under 10 µM each time.
As for `Cc1cc(C(=O)NCCCN2CCN(C(=O)NC(C(=O)N[C@H]3Cc4ccc(F)c(C(=O)O)c4OB3O)c3cc(F)c(O)c(O)c3Cl)C(=O)C2=O)c(F)cn1` (stereo partly drawn) [Example 301, (3R)-3-(2-(2-chloro-5-fluoro-3,4-dihydroxyphenyl)-2-(4-(3-(5-fluoro-2-methylisonicotinamido)propyl)-2,3-dioxopiperazine-1-carboxamido)acetamido)-7-fluoro-2-hydroxy-3,4-dihydro-2H-benzo[e][1,2]oxaborinine-8-carboxylic acid], the MIC in assay [1] is under 1 µg/mL; in assay [3], under 1 µg/mL; in assay [4] it was under 1 µg/mL; in [5], 2 to 4 µg/mL (≈ 2.57 to 5.15 µM); in [6], under 1 µg/mL; in assay [7] it was under 1 µg/mL. Besides, the MIC in [9] and in assay [11] was under 1 µg/mL throughout. In assay [2], this compound displayed an EC50 of under 10 µM. In addition, the IC50 in assay [8] and in [10] was under 10 µM each time.

One may read the EC50 as the concentration giving half of the maximal effect.
